# Assay results as given in article PMC11219945, “Assessing genotoxic effects of chemotherapy agents by a robust in vitro assay based on mass spectrometric quantification of γ-H2AX in HepG2 cells” (Frontiers in Pharmacology, 2024).
# Assays:
# [1] = test system: γ-H2AX in HepG2 cells; assay: γ-H2AX MS assay, dose-effect relationship in HepG2 cells; conditions: human, 24 h
# Experimental: Human hepatoblastoma cells (HepG2) were cultivated in DMEM medium under standard conditions (37°C in a 5% CO2 atmosphere). The culturing medium was added with 10% FBS, 100 U/mL penicillin and 100 μg/mL streptomycin.
# In accordance to our previous study, cells were exposed to the chemotherapeutic agent by adding a proper volume of chemotherapeutic agent stock solution to the fresh medium without serum. Controls were treated with DMSO (0.1%) in medium. Independent biological experiments with three technical replicates were conducted.
# The cells were then treated with different chemotherapy agents in serum-free medium. For a dose-effect relationship experiment, cells were exposed to each agent at either of three concentrations with a 10-fold increase for 24 h. For the time-effect relationship experiment of nine tested chemotherapy agents, cells were exposed to selected chemotherapy agents at 0.5, 1, 2, 4, 8, 12, and 24 h, with the concentration of 100 μM. Independent biological experiments with three technical replicates were performed.
# (§1) The quantification of γ-H2AX was carried out according to the previous report ([Qu et al., 2021]). In short, the cell clumps were collected after a certain period of cell culture and histones were obtained by acid extraction. After nuclear isolation, histone extraction, trypsin digestion in the solution, and desalting, the peptide sample from the carboxy terminus of H2AX was analyzed. LC–MS/MS analysis was conducted using a QTRAP 5500 (AB Sciex, Framingham, United States) with an ACQUITY UPLC system (Waters Co., Manchester, United Kingdom). Chromatographic separation was carried out with an ACQUITY UPLC BEH C18 column (100 mm × 2.1 mm, 1.7 μm). The column temperature was maintained at 40°C. A 10 μL sample aliquot was injected for analysis. Mobile phases A and B were 0.1% FA in distilled H2O and acetonitrile, respectively. […] The eluent composition was maintained for 2 min, after which the system returned to 1% B and was re-equilibrated for 2 min. The eluates in the first 1 min were switched to waste to prevent contaminating the ion source. The electrospray ionization source was operated in positive mode using nitrogen as the nebulizing gas. All experiments were performed independently in at least triplicate.
# To this end, we firstly examined the cytotoxicity of 34 chemotherapy agents, all of which were already well classified in terms of diverse characteristics. These tested chemotherapy agents were serially diluted for exposure to check the effects on cell viability.
# [2] = test system: γ-H2AX in HepG2 cells; assay: γ-H2AX time-effect relationship / DNA repair kinetics (k, t50) in HepG2 cells; type: cell-based, Human; set-up: k (speed of γ-H2AX descending): unit not given here; conditions: 100 μM, 0.5–8 h time-dependent kinetics
# Experimental: The cells were then treated with different chemotherapy agents in serum-free medium. […] Independent biological experiments with three technical replicates were performed.
# as §1, with “In” for “The quantification of γ-H2AX was carried out according to the previous report ([Qu et al., 2021]). In”
# Here, we estimated k and t50 after exposure to nine representative chemotherapy agents based on the 0.5–8 h γ-H2AX time-dependent kinetics (Figure 5) and then obtained these parameters to describe each agent DSB repair capacity using the functions optim and optimize in R language.
# [3] = set-up: method as in earlier work; conditions: ref IARC; cited from earlier work
# [4] = combination of in vitro mouse lymphoma, chromosomal aberration, and micronucleus tests; cited from earlier work
Compound,maximum γ-H2AX value within the selected concentration range [1],k (speed of γ-H2AX descending) [2],t50 (time required for γ-H2AX to drop to half of the maximum value) [2] [h],IARC classification group [3],In vitro assays (genotoxicity) [4]
COc1cccc2c1C(=O)c1c(O)c3c(c(O)c1C2=O)C[C@@](O)(C(C)=O)C[C@@H]3O[C@H]1C[C@H](N)[C@H](O)[C@H](C)O1 [Daunorubicin],23,0.139,3.344,2B,+
COc1cccc2c1C(=O)c1c(O)c3c(c(O)c1C2=O)C[C@@](O)(C(=O)CO)C[C@@H]3O[C@H]1C[C@H](N)[C@H](O)[C@H](C)O1 [Doxorubicin],21,0.088,4.269,2A,+
